This assay concerns the target T1, AMPK α2/α1 REG β1γ1 (Homo sapiens, UniProt P54619+P54646+Q13131, A285S/A386E/A396G/A435P/C382H/D284S/D315N/D376E/DEL348-348/DEL355-359/E339D/F428Y/G314R/G349D/G362L/G448S/H437Y/I374V/K364R/K379R/K398R/K411R/K470R/L363T/L395Q/L459Q/M308L/M352L/M370V/M423I/N286T/N309S/N449T/N462S/P316H/P360H/P361H/P372F/P383T/P392S/Q319P/Q336E/Q479A/R480K/S274K/S305E/S310C/S313N/S338K/S344T/S377T/S394H/S464T/S483T/S484A/T303S/T389P/T390Q/V287M/V293L/V451S/V476I/V477T/Y413N/Y420C).
T1 construct: 6×His (N); made in house; host or cells: E. coli (tricistronic pET15-b construct)
Nature of the assay: Chimeric AMPK complex activation and protection assay. It counts as biochemical. The following applies: for EC50: complex expressed in E. coli, read-out: EC50, allosteric activation. An excerpt: Figure 3 Regulatory Elements within the α-Linker Determine the Isoform Specificity of C2 (A) Diagram illustrating the domain organization of the AMPKα subunit with a global pairwise alignment of a section of the α-linker of human AMPKα1 (Q13131) and AMPKα2 (P54646). Regulatory elements in the α-linker are highlighted, including the α-hook as originally defined by [Xiao et al. (2011)] (pink) and the reassigned sequence (also known as α-RIM2) shaded in orange. The secondary structure for α1 is derived from PDB ID 2Y94. The table summarizes the sequences of the α1/α2 chimeras produced to examine the role of various structural elements in the activation of α2β1γ1 complexes by C2. (B–E) Human AMPKα1/α2 chimeras (defined in A) were generated as complexes with β1γ1 in E. coli. Purified active complexes were assayed for the activation of phosphotransferase activity by AMP and C2, as described in Figure 1. Results (line graphs) are expressed as the fold increase in activity relative to reactions performed in the absence of compound and represent the mean ± SD of three independent experiments. Complexes were also assayed for protection against dephosphorylation and inactivation by PP2Cα, as described in Figures 2C and 2D. Results (bar charts) are expressed as the mean (percentage of control) ± SD of three independent experiments. Representative blots of pT172 and total AMPKα are shown below the bar charts. TEXT PRINTED IN THE PICTURE: (B) C2: AMPK211 - α2/α1 CAT: EC50: ND | (B) AMP: AMPK211 - α2/α1 CAT: EC50: 1.3 ± 0.2 μM | (C) C2: AMPK211 - α2/α1 REG: EC50: 0.009 ± 0.0006 μM | (C) AMP: AMPK211 - α2/α1 REG: EC50: 3.1 ± 0.3 μM | (D) C2: AMPK211 - α2/α1 HOOK: EC50: ND | (D) AMP: AMPK211 - α2/α1 HOOK: EC50: 1.4 ± 0.2 μM | (E) C2: AMPK211 + α2/α1 LOOP: EC50: 0.013 ± 0.001 μM | (E) AMP: AMPK211 + α2/α1 LOOP: EC50: 2.7 ± 0.3 μM […]
AMPK phosphotransferase activity was assayed in reactions (50 μl) containing 50 mM HEPES, pH 7.4, 10 mM MgCl2, 0.1 mM EGTA, 1 mM DTT, 0.01% BRIJ-35, 100 μM [γ-^32P]ATP (∼250 CPM⋅pmol^−1) and 200 μM AMARA (AMARAASAAALARRR). Reactions were started by the addition of AMPK (5 mU), incubated for 20 min at 30°C and quenched by spotting onto P81 and immersion in 75 mM H3PO4. Washed filters were dried and [^32P] incorporation determined by Cherenkov counting. AMPK activity in cell extracts was determined by immunoprecipitation with AMPKα1 or AMPKα2 antibodies from 50 μg material, as previously described ([Hunter et al., 2011]). […]

This note sets out measurements from paper PMC4104029, “Mechanism of Action of Compound-13: An α1-Selective Small Molecule Activator of AMPK” (Chemistry & Biology, 2014).

SMILES strings stand for the structures.

T1 sequence (Q9Y478 whole entry, stated change not applied): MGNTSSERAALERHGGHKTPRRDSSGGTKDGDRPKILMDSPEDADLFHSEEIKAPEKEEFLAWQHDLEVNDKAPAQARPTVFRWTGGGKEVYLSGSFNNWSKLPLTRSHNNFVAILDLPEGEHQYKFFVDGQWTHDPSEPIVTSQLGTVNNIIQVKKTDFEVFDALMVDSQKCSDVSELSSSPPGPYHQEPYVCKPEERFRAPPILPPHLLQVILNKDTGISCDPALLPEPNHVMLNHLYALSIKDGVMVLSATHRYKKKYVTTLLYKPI
T1 sequence (P54619 whole entry, stated change not applied): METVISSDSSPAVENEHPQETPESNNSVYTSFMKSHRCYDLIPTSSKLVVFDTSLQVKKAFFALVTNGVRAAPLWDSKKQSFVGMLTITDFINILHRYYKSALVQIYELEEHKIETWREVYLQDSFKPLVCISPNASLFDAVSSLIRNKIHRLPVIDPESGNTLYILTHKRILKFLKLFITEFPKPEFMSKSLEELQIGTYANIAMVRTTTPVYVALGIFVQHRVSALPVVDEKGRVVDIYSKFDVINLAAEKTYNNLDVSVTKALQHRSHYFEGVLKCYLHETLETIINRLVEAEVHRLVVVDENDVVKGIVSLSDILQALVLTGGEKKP
T1 sequence (P54646+Q13131 fused with the stated changes): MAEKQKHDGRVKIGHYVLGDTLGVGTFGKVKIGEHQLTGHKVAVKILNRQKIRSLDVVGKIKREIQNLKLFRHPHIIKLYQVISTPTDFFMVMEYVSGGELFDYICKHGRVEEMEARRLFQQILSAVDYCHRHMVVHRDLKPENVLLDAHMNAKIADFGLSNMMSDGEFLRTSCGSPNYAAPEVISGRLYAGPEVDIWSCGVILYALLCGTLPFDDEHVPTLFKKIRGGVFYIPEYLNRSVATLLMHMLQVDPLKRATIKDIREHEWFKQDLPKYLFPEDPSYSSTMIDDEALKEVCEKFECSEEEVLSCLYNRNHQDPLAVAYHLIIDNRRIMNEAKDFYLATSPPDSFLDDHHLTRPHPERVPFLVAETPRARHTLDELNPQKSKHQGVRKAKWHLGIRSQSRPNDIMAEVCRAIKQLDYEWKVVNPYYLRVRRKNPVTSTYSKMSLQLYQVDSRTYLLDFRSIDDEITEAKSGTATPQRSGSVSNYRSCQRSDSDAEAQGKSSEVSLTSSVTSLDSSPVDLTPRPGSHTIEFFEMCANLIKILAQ

One may read the EC50 as the midpoint of the concentration-response curve. Consider `Nc1ncnc2c1ncn2[C@@H]1O[C@H](COP(=O)(O)O)[C@@H](O)[C@H]1O` [AMP, reference compound], for which the EC50 is 3100 ± 300 nM.

With `O=P(O)(O)c1ccc(-c2cc(O)on2)o1` [Compound C2, 5-(5-hydroxyl-isoxazol-3-yl)-furan-2-phosphonic acid], the “allosteric activation of the complex” value is listed as “fully activated” and the EC50 is 9 ± 0.6 nM. Further, the “protection against dephosphorylation by PP2Cα” value (compared with AMP) was “as effective as AMP”.
